Measurements as given in the supplement of paper PMC10307832.

Tests used:
Assay in all cases: relative viability (nuclei count vs DMSO), 5 days (fraction); higher = more cells survive
[1] = system: NCI-H23
Procedure, shortened: (§1)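 Dosing by pin tool came one day after lung cancer cell lines were seeded in 1536-well plates, using either one drug or a fixed anchor-drug dose plus five library-drug doses (not always all listed) in √10 steps. After 5 days, nuclei were counted on 4× images. Relative viability is treated-well nuclei count divided by vehicle-well nuclei count, and values are medians of duplicate plates.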

[2] = system: EMC-BAC-2
Procedure, shortened: as §1

[3] = system: NCI-H1915
Procedure, shortened: as §1

[4] = system: A-427
Procedure, shortened: as §1

[5] = system: NCI-H1437
Procedure, shortened: as §1

[6] = system: HARA
Procedure, shortened: as §1

[7] = system: NCI-H1395
Procedure, shortened: as §1

[8] = system: SW 1573
Procedure, shortened: as §1

[9] = system: SK-LU-1
Procedure, shortened: as §1

[10] = system: HCC-827
Procedure, shortened: as §1

[11] = system: NCI-H460
Procedure, shortened: as §1

[12] = system: NCI-H2228
Procedure, shortened: as §1

[13] = system: NCI-H1792
Procedure, shortened: as §1

[14] = system: COR-L 105
Procedure, shortened: as §1

[15] = system: NCI-H727
Procedure, shortened: as §1

[16] = system: LCLC-103H
Procedure, shortened: as §1

[17] = system: HCC-366
Procedure, shortened: as §1

[18] = system: HOP-62
Procedure, shortened: as §1

[19] = system: NCI-H1755
Procedure, shortened: as §1

[20] = system: CAL-12T
Procedure, shortened: as §1

[21] = system: NCI-H2009
Procedure, shortened: as §1

## CC(=O)O[C@@]12CO[C@@H]1C[C@H](O)[C@@]1(C)C(=O)[C@H](O)C3=C(C)[C@@H](OC(=O)[C@H](O)[C@@H](NC(=O)OC(C)(C)C)c4ccccc4)C[C@@](O)([C@@H](OC(=O)c4ccccc4)[C@H]21)C3(C)C [Docetaxel] + CS(=O)(=O)N1CCN(Cc2cc3nc(-c4cccc5[nH]ncc45)nc(N4CCOCC4)c3s2)CC1 [Pictilisib] (partner 1 µM)
[1]; first compound 0.0002 µM
  relative viability: 0.499
[1]; first compound 0.000632 µM
  relative viability: 0.403
[1]; first compound 0.002 µM
  relative viability: 0.248
[1]; first compound 0.006325 µM
  relative viability: 0.185
[1]; first compound 0.02 µM
  relative viability: 0.144
[2]; first compound 0.0002 µM
  relative viability: 0.555
[2]; first compound 0.000632 µM
  relative viability: 0.469
[2]; first compound 0.002 µM
  relative viability: 0.324
[2]; first compound 0.006325 µM
  relative viability: 0.271
[2]; first compound 0.02 µM
  relative viability: 0.207
[3]; first compound 0.0002 µM
  relative viability: 0.857
[3]; first compound 0.000632 µM
  relative viability: 0.931
[3]; first compound 0.002 µM
  relative viability: 0.275
[3]; first compound 0.006325 µM
  relative viability: 0.257
[3]; first compound 0.02 µM
  relative viability: 0.11
[4]; first compound 0.0002 µM
  relative viability: 0.766
[4]; first compound 0.000632 µM
  relative viability: 0.885
[4]; first compound 0.002 µM
  relative viability: 0.488
[4]; first compound 0.006325 µM
  relative viability: 0.23
[4]; first compound 0.02 µM
  relative viability: 0.158
[5]; first compound 0.0002 µM
  relative viability: 0.453
[5]; first compound 0.000632 µM
  relative viability: 0.366
[5]; first compound 0.002 µM
  relative viability: 0.132
[5]; first compound 0.006325 µM
  relative viability: 0.117
[5]; first compound 0.02 µM
  relative viability: 0.0671
[6]; first compound 0.0002 µM
  relative viability: 0.211
[6]; first compound 0.000632 µM
  relative viability: 0.159
[6]; first compound 0.002 µM
  relative viability: 0.126
[6]; first compound 0.006325 µM
  relative viability: 0.0701
[6]; first compound 0.02 µM
  relative viability: 0.0659
[7]; first compound 0.0002 µM
  relative viability: 0.53
[7]; first compound 0.000632 µM
  relative viability: 0.617
[7]; first compound 0.002 µM
  relative viability: 0.543
[7]; first compound 0.006325 µM
  relative viability: 0.382
[7]; first compound 0.02 µM
  relative viability: 0.384
[8]; first compound 0.0002 µM
  relative viability: 0.372
[8]; first compound 0.000632 µM
  relative viability: 0.314
[8]; first compound 0.002 µM
  relative viability: 0.196
[8]; first compound 0.006325 µM
  relative viability: 0.153
[8]; first compound 0.02 µM
  relative viability: 0.144
[9]; first compound 0.0002 µM
  relative viability: 0.608
[9]; first compound 0.000632 µM
  relative viability: 0.305
[9]; first compound 0.002 µM
  relative viability: 0.253
[9]; first compound 0.006325 µM
  relative viability: 0.181
[9]; first compound 0.02 µM
  relative viability: 0.171
[10]; first compound 0.0002 µM
  relative viability: 0.904
[10]; first compound 0.000632 µM
  relative viability: 1.08
[10]; first compound 0.002 µM
  relative viability: 0.787
[10]; first compound 0.006325 µM
  relative viability: 0.466
[10]; first compound 0.02 µM
  relative viability: 0.363
[11]; first compound 0.0002 µM
  relative viability: 0.351
[11]; first compound 0.000632 µM
  relative viability: 0.3
[11]; first compound 0.002 µM
  relative viability: 0.144
[11]; first compound 0.006325 µM
  relative viability: 0.0682
[11]; first compound 0.02 µM
  relative viability: 0.0373
[12]; first compound 0.0002 µM
  relative viability: 0.291
[12]; first compound 0.000632 µM
  relative viability: 0.153
[12]; first compound 0.002 µM
  relative viability: 0.138
[12]; first compound 0.006325 µM
  relative viability: 0.18
[12]; first compound 0.02 µM
  relative viability: 0.131
[13]; first compound 0.0002 µM
  relative viability: 0.274
[13]; first compound 0.000632 µM
  relative viability: 0.273
[13]; first compound 0.002 µM
  relative viability: 0.178
[13]; first compound 0.02 µM
  relative viability: 0.073
[14]; first compound 0.0002 µM
  relative viability: 0.392
[14]; first compound 0.000632 µM
  relative viability: 0.37
[14]; first compound 0.002 µM
  relative viability: 0.278
[14]; first compound 0.006325 µM
  relative viability: 0.228
[14]; first compound 0.02 µM
  relative viability: 0.294
[15]; first compound 0.0002 µM
  relative viability: 0.309
[15]; first compound 0.000632 µM
  relative viability: 0.4
[15]; first compound 0.002 µM
  relative viability: 0.255
[15]; first compound 0.006325 µM
  relative viability: 0.213
[15]; first compound 0.02 µM
  relative viability: 0.182
[16]; first compound 0.0002 µM
  relative viability: 0.537
[16]; first compound 0.000632 µM
  relative viability: 0.514
[16]; first compound 0.002 µM
  relative viability: 0.612
[16]; first compound 0.006325 µM
  relative viability: 0.455
[16]; first compound 0.02 µM
  relative viability: 0.251
[17]; first compound 0.0002 µM
  relative viability: 0.0877
[17]; first compound 0.002 µM
  relative viability: 0.0735
[17]; first compound 0.006325 µM
  relative viability: 0.0362
[17]; first compound 0.02 µM
  relative viability: 0.0228
[18]; first compound 0.0002 µM
  relative viability: 0.75
[18]; first compound 0.000632 µM
  relative viability: 0.395
[18]; first compound 0.02 µM
  relative viability: 0.101
[19]; first compound 0.0002 µM
  relative viability: 0.346
[19]; first compound 0.000632 µM
  relative viability: 0.306
[19]; first compound 0.002 µM
  relative viability: 0.264
[19]; first compound 0.006325 µM
  relative viability: 0.249
[19]; first compound 0.02 µM
  relative viability: 0.183
[20]; first compound 0.0002 µM
  relative viability: 0.53
[20]; first compound 0.000632 µM
  relative viability: 0.271
[20]; first compound 0.002 µM
  relative viability: 0.268
[20]; first compound 0.006325 µM
  relative viability: 0.24
[20]; first compound 0.02 µM
  relative viability: 0.171
[21]; first compound 0.0002 µM
  relative viability: 0.696
[21]; first compound 0.000632 µM
  relative viability: 0.747
[21]; first compound 0.002 µM
  relative viability: 0.447
[21]; first compound 0.006325 µM
  relative viability: 0.203
[21]; first compound 0.02 µM
  relative viability: 0.129
